From publication PMC5307958 (Scientific Reports, 2017)
Bridges are numbered along the chain shown (N, C = ends). Where no end group is shown, it is not given here.

Tests used:
[1] = tested on: mouse inferior colliculus (auditory midbrain); assay: Sound evoked activity within excitatory receptive field (eRF), topical application on dura
[2] = Blood-brain barrier crossing inferred from functional activity in the IC; type: in vivo, mouse; conditions: inferred from suppression of sound evoked activity after topical (dura) or systemic (0.3 mg/kg I.P.) administration
Description: (§1) The temperature was maintained near 25 °C.

[3] = tested on: auditory nerve and generators caudal to the IC; assay: Auditory brainstem responses (ABR); type: in vivo, mouse
Description: as §1
ABR recordings were acquired after the mice were anesthetized with ketamine (120 mg/kg) and xylazine (10 mg/kg) I.P., and respiration was monitored throughout to determine when additional supplemental doses were needed. Body temperature was kept constant at 37 °C using a feedback controlled heating pad (Physitemp TCAT2-LV Controller, Clifton, NJ). Stimuli and recordings were generated digitally and controlled using a TDT RZ6 Multi-I/O Processor and their BioSig/SigGen software. Acoustic signals were played through a multi-field (MF1) magnetic speaker (TDT, Alachua, FL) with a total harmonic distortion < = 1% from 1 kHz to 50 kHz, centered 0° azimuth in regards to the animal at a distance of 10 cm from the ear pinna. Tone bursts were presented at frequencies of 6, 12, 16, 20, 24, and 36 kHz (3 ms duration, 1 ms rise/fall time, alternating polarity) at a rate of 29 per second, attenuated in 5 dB steps from 80 dB SPL to 15 dB below threshold or 5 dB SPL, whichever was lower. Threshold was determined by visual inspection as the lowest intensity level which produced a defined wave in both replicates. All signals were calibrated using a Larsen Davis preamplifier, model 2221, with a 1/4″ microphone and a Larson Davis CAL200 Precision Acoustic Calibrator (PCB Piezotronics, Inc., Depew, NY). ABR recordings were acquired using a TDT RA4LI low-impedance digital headstage and RA4PA Medusa preamp with the active (noninverting) electrode inserted at the vertex, the reference (inverting) electrode below the left ear, and the ground electrode below the right ear. The responses were amplified (20×), filtered (300 Hz–3 kHz), and averaged using BioSig software and the System III hardware (TDT) data-acquisition system. A total of 256 tone burst signal and 150 GIN signal recordings were replicated for each acquisition, and muscle artifacts exceeding 7 μV were rejected from the averaged response. All recordings took place in a soundproof booth lined with echo-attenuating acoustic foam. ABR waveforms were analyzed using a custom MatLab program that automatically determined peak latencies and amplitudes in combination with secondary verification by an experimenter blind to the treatment group.

BK channel = conditions: small molecule BK channel blocker; cited from earlier work
Text: CNS pharmacological applications favor pharmaceutical agents with high affinity, specificity, amenability to large-scale synthesis and BBB permeability. Peptide drugs have the potential for high affinity and specific binding to ion channel targets, as shown by voltage-gated potassium channel (Kv) peptide toxins. In addition to natural products, phage display screens have successfully selected peptides with high target affinity. For example, a phage display screen of scorpion toxin derivatives selected a novel peptide that blocks the Kv3.1 channel in the nanomolar range[41]. Here, a phage displ ...

[4] = cited from earlier work
Text: A pharmacological agent must cross the BBB in order to act at CNS-located targets. […] Many ion channel-targeted peptides are regarded as having low BBB permeability due to the large difference between the lethal dose when administered peripherally versus centrally. For example, the LD50 for peripherally administered dendrotoxin is in the tens of mg/kg, while it is ten thousand fold l ...

[5] = target: T1, human BKα channel (ZERO isoform) expressed in HEK293 cells (Homo sapiens, UniProt Q12791); assay: Patch-clamp recording, inside-out patches, extracellular application; type: cell-based; conditions: for effect on Po (post vs. pre peptide): 500 nM linear (reduced) LS3, extracellular, any voltage, compared with 500 nM cyclic LS3
T1 construct: expressed in transfected cells; host or cells: HEK293 (ATCC), transient transfection with Lipofectamine 2000; EGFP cotransfected as a separate marker
Description: HEK293 cells (ATCC, Manassas, VA) were grown according to standard procedures. Cells were cultured at 37 °C in a 5% CO2 atmosphere in Dulbecco’s modified Eagle’s medium with L-glutamine, sodium pyruvate and 10% fetal bovine serum (Invitrogen). Cell lines were split with trypsin/EDTA in Hanks’ balanced salt solution (Invitrogen) up to 25–30 cycles. For phage display, stable lines stably expressed rSK2 or hBKα ZERO isoform. Cells were transfected (Lipofectamine 2000, Invitrogen) with hGlyRα1 and used 48 hours later. For electrophysiological recordings, cells were transfected with hBKα ZERO isoform. Enhanced green fluorescent protein (EGFP) was cotransfected as a marker. Electrophysiological recordings were made 16–72 h after transfection. Although the profile of BK channel composition varies from tissue to tissue, the ZERO BK channel splice variant is widely expressed, particularly in the nervous system, serving as a representative form for studying the modulation of BK channel gating.
Voltage-clamp recordings were performed at room temperature (22–24 °C) using an inside-out configuration on patches pulled from HEK293 cells. The extracellular solution contained the following (in mM): 2 KCl, 136 KOH, 20 HEPES, 2 MgCl2, adjusted to pH 7.2 with MeSO3H. In order to apply peptide to the extracellular surface, patch electrodes (7–20 MΩ in resistance) were tip-filled with normal extracellular solution and backfilled with extracellular solution containing LS3. Enough normal extracellular solution was included to provide at least five minutes of peptide-free recording (determined by plotting Po vs. time). The intracellular solution (in the bath) contained the following (in mM): 6 KCl, 132 KOH, 20 HEPES, adjusted to pH 7.2 with MeSO3H. To achieve 750 nM free Ca^2+, […] and 5 mM EGTA were included, a ratio verified by measurement with a Ca^2+-sensitive electrode. Voltage-clamp recordings made with an Axopatch 200 A amplifier and custom macros in IgorPro. Analysis was performed with QUB (http://www.qub.buffalo.edu), including Po, mean open time and three component exponential fits to closed dwell times. Group means±SEM for post-peptide measures were plotted relative to pre-peptide values and compared with pre values via planned paired t-tests.

[6] = target: comprehensive panel of mammalian CNS-based proteins; assay: radioligand binding; competition binding assays (NIMH PDSP): 10 microM LS3 against known radioligands for 33 targets; percent inhibition measured 4 times for each receptor; less than 50% inhibition considered insignificant
[7] = target: T2, human BKα channel (ZERO isoform) (human) (UniProt O95259)
T2 sequence: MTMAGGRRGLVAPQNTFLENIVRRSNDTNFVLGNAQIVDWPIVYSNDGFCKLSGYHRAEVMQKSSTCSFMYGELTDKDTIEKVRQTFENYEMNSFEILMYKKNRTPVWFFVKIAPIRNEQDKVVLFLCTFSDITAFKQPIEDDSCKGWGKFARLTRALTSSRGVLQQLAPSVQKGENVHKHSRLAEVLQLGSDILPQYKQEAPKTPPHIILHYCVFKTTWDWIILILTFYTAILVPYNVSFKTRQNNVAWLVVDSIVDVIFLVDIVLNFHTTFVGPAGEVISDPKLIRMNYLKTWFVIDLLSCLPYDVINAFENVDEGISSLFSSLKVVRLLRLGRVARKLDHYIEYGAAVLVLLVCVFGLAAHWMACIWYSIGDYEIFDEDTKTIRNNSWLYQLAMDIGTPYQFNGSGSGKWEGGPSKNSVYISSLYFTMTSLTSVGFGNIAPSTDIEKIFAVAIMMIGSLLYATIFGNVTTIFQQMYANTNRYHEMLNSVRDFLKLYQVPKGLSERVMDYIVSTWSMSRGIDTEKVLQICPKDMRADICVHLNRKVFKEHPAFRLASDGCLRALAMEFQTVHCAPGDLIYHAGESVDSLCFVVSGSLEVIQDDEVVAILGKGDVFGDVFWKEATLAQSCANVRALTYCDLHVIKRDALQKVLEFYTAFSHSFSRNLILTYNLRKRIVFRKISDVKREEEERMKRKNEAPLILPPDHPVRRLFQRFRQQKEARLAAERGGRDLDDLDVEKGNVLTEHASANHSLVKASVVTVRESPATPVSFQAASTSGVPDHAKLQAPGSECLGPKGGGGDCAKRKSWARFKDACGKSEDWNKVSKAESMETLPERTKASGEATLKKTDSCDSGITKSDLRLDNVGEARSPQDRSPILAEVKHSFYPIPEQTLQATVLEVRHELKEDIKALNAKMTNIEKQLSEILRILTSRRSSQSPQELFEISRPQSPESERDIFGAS

T1 sequence (Q12791 1-1178 isoform Q12791-5): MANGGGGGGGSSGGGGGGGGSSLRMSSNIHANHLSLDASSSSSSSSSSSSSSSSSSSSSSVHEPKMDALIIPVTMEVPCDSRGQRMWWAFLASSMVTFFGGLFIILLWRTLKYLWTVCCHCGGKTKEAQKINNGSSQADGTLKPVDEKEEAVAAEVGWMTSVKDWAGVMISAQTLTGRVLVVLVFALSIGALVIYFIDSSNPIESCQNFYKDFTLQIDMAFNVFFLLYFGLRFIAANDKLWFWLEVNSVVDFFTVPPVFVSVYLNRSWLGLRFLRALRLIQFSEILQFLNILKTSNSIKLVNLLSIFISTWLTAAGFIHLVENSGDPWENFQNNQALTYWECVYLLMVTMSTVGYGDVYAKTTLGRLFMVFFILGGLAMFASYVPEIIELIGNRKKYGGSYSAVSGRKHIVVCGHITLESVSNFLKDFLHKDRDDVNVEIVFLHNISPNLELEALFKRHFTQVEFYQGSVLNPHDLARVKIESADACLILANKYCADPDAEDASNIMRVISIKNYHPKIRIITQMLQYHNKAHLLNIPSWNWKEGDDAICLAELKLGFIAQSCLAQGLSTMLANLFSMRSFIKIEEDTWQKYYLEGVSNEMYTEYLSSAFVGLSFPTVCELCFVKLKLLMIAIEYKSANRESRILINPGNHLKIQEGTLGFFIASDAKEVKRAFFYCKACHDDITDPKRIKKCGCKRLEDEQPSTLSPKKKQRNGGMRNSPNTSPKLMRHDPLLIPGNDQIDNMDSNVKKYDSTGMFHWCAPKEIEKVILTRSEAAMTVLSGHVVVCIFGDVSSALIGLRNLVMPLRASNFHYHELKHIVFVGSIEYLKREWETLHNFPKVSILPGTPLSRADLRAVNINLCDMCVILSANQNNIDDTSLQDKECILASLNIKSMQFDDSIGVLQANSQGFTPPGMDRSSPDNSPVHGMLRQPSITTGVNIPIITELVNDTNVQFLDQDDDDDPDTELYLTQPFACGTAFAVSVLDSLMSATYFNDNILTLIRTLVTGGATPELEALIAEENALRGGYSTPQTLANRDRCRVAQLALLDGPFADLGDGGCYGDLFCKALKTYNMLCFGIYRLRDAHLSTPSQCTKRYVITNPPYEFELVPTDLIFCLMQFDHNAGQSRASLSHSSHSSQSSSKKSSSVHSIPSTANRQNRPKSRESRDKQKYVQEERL

CC(C)(O)[C@H]1O[C@H]2CC[C@@]3(C)[C@@](O)(CC[C@H]4Cc5c([nH]c6ccccc56)[C@@]43C)C2=CC1=O [paxilline, reference compound]
time course of suppression of sound evoked activity ([1]; 1 μL of 10 μM paxilline, 51 units, F(12,430) = 4.146 P < 0.0001): suppression of sound evoked activity increasing out to 6 hours
reduction in sound driven activity ([1]; 1 μL of 10 μM paxilline, 5 hours post-application, N = 5 mice): 87%
reduction of maximum spike counts ([1]; 1 μL of 10 μM paxilline, within 30 minutes, 51 units): 50%
maximum spike counts ([1]; 1 μL of 10 μM paxilline, within 30 minutes, baseline 375, 51 units): 180 spikes
reduction of sound evoked driven activity within the RF ([1]; 1 μL of 10 μM stock, from baseline pre-peptide, Fig. 5A,B representative eRFs): approximately 50%
ability to cross the BBB [2]: can cross the BBB
mean ABR thresholds ([3]; 4 hours post I.P. injection vs. baseline, tone bursts): No significant effect
ABR peak 1 (P1) amplitude by intensity functions ([3]; systemic (I.P.) injection, 4 hrs vs. baseline, auditory nerve): Neither BK channel modulator reduced auditory nerve (P1)
ABR peak 4 (P4) amplitude by intensity functions ([3]; systemic (I.P.) injection, 4 hrs vs. baseline, generators caudal to the IC (brainstem)): Neither BK channel modulator reduced auditory nerve (P1) or brainstem (P4) amplitudes
IC50 (BK channel block) (BK channel): low nanomolar

apamin: a small Kv toxin at 18 aa (CNCKAPETALCARRCQQH-NH2; disulfide 1-11, 3-15; ends not checked; UniProt P01500 28-45, looked up)
CNS availability ([4]; in contrast to many ion channel-targeted peptides): higher CNS availability
effect on learning and memory-related behaviors ([4]; intraperitoneal injection at a similar concentration used in this paper): alter learning and memory-related behaviors

dendrotoxin
LD50, intraventricular injection, relative to peripheral [4]: ten thousand fold lower
LD50, peripherally administered [4]: tens

linearized version of LS3: linearized version of LS3 without the disulfide bridge (CRRGLVQVC)
effect on Po (post vs. pre peptide) [5]: no significant reduction in Po at any voltage
effect on Po (post vs. pre peptide) ([5]; listed as linear peptide): lack of effect
effect on Po (post vs. pre peptide) ([5]; listed as reduced form of LS3): did not alter Po
potency relative to cyclic LS3 ([5]; linearized version without the disulfide bridge, Po): less potent

CRRGLVQVC (disulfide 1-9) [LS3 (… with a 1–9 disulfide bridge)]
Ki [6]: > 10 µM
percent inhibition of radioligand binding at 10 microM LS3 [6]: < 50%
post-peptide Po relative to pre-peptide Po at 40 mV, 500 nM LS3 [7]: 0.54
